# Test results reported in ChEMBL document CHEMBL3585308, “Discovery and Modification of in Vivo Active Nrf2 Activators with 1,2,4-Oxadiazole Core: Hits Identification and Structure-Activity Relationship Study” (J Med Chem, 2015).
# Target: T1, Nuclear factor erythroid 2-related factor 2 (Homo sapiens) (UniProt Q16236)
# T1 sequence (whole entry): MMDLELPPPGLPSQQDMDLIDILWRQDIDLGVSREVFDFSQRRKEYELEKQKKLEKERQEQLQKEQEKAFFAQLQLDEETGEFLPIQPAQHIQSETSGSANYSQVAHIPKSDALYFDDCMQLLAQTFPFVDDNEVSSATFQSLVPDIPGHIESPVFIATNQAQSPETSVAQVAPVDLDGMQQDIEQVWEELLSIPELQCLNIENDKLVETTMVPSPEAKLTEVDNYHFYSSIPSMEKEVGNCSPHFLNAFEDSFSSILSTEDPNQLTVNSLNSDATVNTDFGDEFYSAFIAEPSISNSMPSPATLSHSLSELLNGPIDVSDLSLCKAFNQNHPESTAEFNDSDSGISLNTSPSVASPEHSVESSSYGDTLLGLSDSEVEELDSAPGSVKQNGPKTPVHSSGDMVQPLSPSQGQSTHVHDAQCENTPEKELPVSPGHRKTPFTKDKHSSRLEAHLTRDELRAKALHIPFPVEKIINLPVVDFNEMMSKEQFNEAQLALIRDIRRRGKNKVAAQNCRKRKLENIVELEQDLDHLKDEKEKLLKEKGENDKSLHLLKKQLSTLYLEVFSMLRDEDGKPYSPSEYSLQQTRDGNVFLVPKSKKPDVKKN
# Assay: Activation of Nrf2 in human HepG2-ARE-C8 cells assessed as upregulation of ARE level at 20 uM after 12 hrs by luciferase reporter gene assay relative to control
# Type: cell-based
# Details: not given
row,SMILES,fold change (FC)
1,COC(=O)/C=C/C(=O)OC,1.65
2,c1cc(-c2nc(-c3ccc4nc[nH]c4c3)no2)ccn1,4.36
3,CC(C)(C)C1=CC(=O)C=CC1=O,1.41
4,Cn1cnc2ccc(-c3noc(-c4ccc5ccccc5c4)n3)cc21,1.39
5,COc1cccc(-c2nc(-c3ccc4nc[nH]c4c3)no2)c1,12.4

# Other lines, results leading:
row,fold change (FC),SMILES
1,6.07,CCCc1ccc(-c2nc(-c3ccc4nc[nH]c4c3)no2)cc1
2,10.2,c1cc2ccc(-c3nc(-c4ccc5nc[nH]c5c4)no3)cc2[nH]1
3,17.7,FC(F)(F)c1ccc(-c2nc(-c3ccc4nc[nH]c4c3)no2)cc1
4,9.84,COc1ccc(-c2nc(-c3ccc4nc[nH]c4c3)no2)cc1
5,8.12,N#Cc1ccc(-c2nc(-c3ccc4nc[nH]c4c3)no2)cc1
6,2,c1ccc(-c2ccc(-c3nc(-c4ccc5nc[nH]c5c4)no3)cc2)cc1
7,10.9,Cc1ccccc1-c1nc(-c2ccc3nc[nH]c3c2)no1

# System: HCT-116
# Assay: Cytotoxicity against human HCT116 cells assessed as reduction of cell proliferation at 80 uM after 24 hrs by MTT assay
# Type: cell-based
# Details: hct-116, 24 h
row,SMILES,Activity
1,CCCc1ccc(-c2nc(-c3ccc4nc[nH]c4c3)no2)cc1,Non-toxic
2,c1cc(-c2nc(-c3ccc4nc[nH]c4c3)no2)ccn1,Non-toxic
3,c1cc2ccc(-c3nc(-c4ccc5nc[nH]c5c4)no3)cc2[nH]1,Non-toxic
4,FC(F)(F)c1ccc(-c2nc(-c3ccc4nc[nH]c4c3)no2)cc1,Non-toxic
5,COc1ccc(-c2nc(-c3ccc4nc[nH]c4c3)no2)cc1,Non-toxic
6,N#Cc1ccc(-c2nc(-c3ccc4nc[nH]c4c3)no2)cc1,Non-toxic
7,c1ccc(-c2ccc(-c3nc(-c4ccc5nc[nH]c5c4)no3)cc2)cc1,Non-toxic
8,Cc1ccccc1-c1nc(-c2ccc3nc[nH]c3c2)no1,Non-toxic
9,Cn1cnc2ccc(-c3noc(-c4ccc5ccccc5c4)n3)cc21,Non-toxic
10,COc1cccc(-c2nc(-c3ccc4nc[nH]c4c3)no2)c1,Non-toxic

# Target: T1, Nuclear factor erythroid 2-related factor 2 (Homo sapiens)
# Assay: Activation of Nrf2 in human HepG2-ARE-C8 cells assessed as upregulation of ARE level at 80 uM after 12 hrs by luciferase reporter gene assay relative to control
# Type: cell-based
# Details: not given
row,SMILES,fold change (FC)
1,c1cc(-c2nc(-c3ccc4nc[nH]c4c3)no2)ccn1,5.99
2,CC(C)(C)C1=CC(=O)C=CC1=O,5.27
3,Cn1cnc2ccc(-c3noc(-c4ccc5ccccc5c4)n3)cc21,1.37
4,COc1cccc(-c2nc(-c3ccc4nc[nH]c4c3)no2)c1,12.4

# Next, values leading:
row,fold change (FC),SMILES
1,7.79,CCCc1ccc(-c2nc(-c3ccc4nc[nH]c4c3)no2)cc1
2,11.6,c1cc2ccc(-c3nc(-c4ccc5nc[nH]c5c4)no3)cc2[nH]1
3,6.56,FC(F)(F)c1ccc(-c2nc(-c3ccc4nc[nH]c4c3)no2)cc1
4,4.92,COc1ccc(-c2nc(-c3ccc4nc[nH]c4c3)no2)cc1
5,10,N#Cc1ccc(-c2nc(-c3ccc4nc[nH]c4c3)no2)cc1
6,15,c1ccc(-c2ccc(-c3nc(-c4ccc5nc[nH]c5c4)no3)cc2)cc1
7,18.5,Cc1ccccc1-c1nc(-c2ccc3nc[nH]c3c2)no1

# Target: T1, Nuclear factor erythroid 2-related factor 2 (Homo sapiens)
# Assay: Activation of Nrf2 in human HepG2-ARE-C8 cells assessed as upregulation of ARE level at 0.02 uM after 12 hrs by luciferase reporter gene assay relative to control
# Type: cell-based
# Details: not given
row,SMILES,fold change (FC)
1,COC(=O)/C=C/C(=O)OC,0.82
2,c1cc(-c2nc(-c3ccc4nc[nH]c4c3)no2)ccn1,1.91
3,CC(C)(C)C1=CC(=O)C=CC1=O,1.18
4,Cn1cnc2ccc(-c3noc(-c4ccc5ccccc5c4)n3)cc21,1.44
5,COc1cccc(-c2nc(-c3ccc4nc[nH]c4c3)no2)c1,1.79

# Now from value to compound:
row,fold change (FC),SMILES
1,1.48,CCCc1ccc(-c2nc(-c3ccc4nc[nH]c4c3)no2)cc1
2,1.22,c1cc2ccc(-c3nc(-c4ccc5nc[nH]c5c4)no3)cc2[nH]1
3,1.35,FC(F)(F)c1ccc(-c2nc(-c3ccc4nc[nH]c4c3)no2)cc1
4,1.43,COc1ccc(-c2nc(-c3ccc4nc[nH]c4c3)no2)cc1
5,1.22,N#Cc1ccc(-c2nc(-c3ccc4nc[nH]c4c3)no2)cc1
6,1.18,c1ccc(-c2ccc(-c3nc(-c4ccc5nc[nH]c5c4)no3)cc2)cc1
7,1.4,Cc1ccccc1-c1nc(-c2ccc3nc[nH]c3c2)no1

# Target: T1, Nuclear factor erythroid 2-related factor 2 (Homo sapiens)
# Assay: Activation of Nrf2 in human HepG2-ARE-C8 cells assessed as upregulation of ARE level at 0.2 uM after 12 hrs by luciferase reporter gene assay relative to control
# Type: cell-based
# Details: not given
row,SMILES,fold change (FC)
1,COC(=O)/C=C/C(=O)OC,1
2,c1cc(-c2nc(-c3ccc4nc[nH]c4c3)no2)ccn1,2.54
3,CC(C)(C)C1=CC(=O)C=CC1=O,1.25
4,Cn1cnc2ccc(-c3noc(-c4ccc5ccccc5c4)n3)cc21,1.4
5,COc1cccc(-c2nc(-c3ccc4nc[nH]c4c3)no2)c1,1.95

# Further lines, results first:
row,fold change (FC),SMILES
1,1.73,CCCc1ccc(-c2nc(-c3ccc4nc[nH]c4c3)no2)cc1
2,1.5,c1cc2ccc(-c3nc(-c4ccc5nc[nH]c5c4)no3)cc2[nH]1
3,2.85,FC(F)(F)c1ccc(-c2nc(-c3ccc4nc[nH]c4c3)no2)cc1
4,2.72,COc1ccc(-c2nc(-c3ccc4nc[nH]c4c3)no2)cc1
5,1.25,N#Cc1ccc(-c2nc(-c3ccc4nc[nH]c4c3)no2)cc1
6,1.54,c1ccc(-c2ccc(-c3nc(-c4ccc5nc[nH]c5c4)no3)cc2)cc1
7,1.59,Cc1ccccc1-c1nc(-c2ccc3nc[nH]c3c2)no1

# Target: T1, Nuclear factor erythroid 2-related factor 2 (Homo sapiens)
# Assay: Activation of Nrf2 in human HepG2-ARE-C8 cells assessed as upregulation of ARE level at 2 uM after 12 hrs by luciferase reporter gene assay relative to control
# Type: cell-based
# Details: not given
row,SMILES,fold change (FC)
1,COC(=O)/C=C/C(=O)OC,1.1
2,c1cc(-c2nc(-c3ccc4nc[nH]c4c3)no2)ccn1,4.27
3,CC(C)(C)C1=CC(=O)C=CC1=O,1.24
4,Cn1cnc2ccc(-c3noc(-c4ccc5ccccc5c4)n3)cc21,1.43
5,COc1cccc(-c2nc(-c3ccc4nc[nH]c4c3)no2)c1,3.16

# Second part, the compound after the results:
row,fold change (FC),SMILES
1,2.25,CCCc1ccc(-c2nc(-c3ccc4nc[nH]c4c3)no2)cc1
2,1.77,c1cc2ccc(-c3nc(-c4ccc5nc[nH]c5c4)no3)cc2[nH]1
3,6.91,FC(F)(F)c1ccc(-c2nc(-c3ccc4nc[nH]c4c3)no2)cc1
4,3.27,COc1ccc(-c2nc(-c3ccc4nc[nH]c4c3)no2)cc1
5,1.35,N#Cc1ccc(-c2nc(-c3ccc4nc[nH]c4c3)no2)cc1
6,1.52,c1ccc(-c2ccc(-c3nc(-c4ccc5nc[nH]c5c4)no3)cc2)cc1
7,3.52,Cc1ccccc1-c1nc(-c2ccc3nc[nH]c3c2)no1

# Target: T1, Nuclear factor erythroid 2-related factor 2 (Homo sapiens)
# Assay: Activation of Nrf2 in human HepG2-ARE-C8 cells assessed as upregulation of ARE level at 160 uM after 12 hrs by luciferase reporter gene assay relative to control
# Type: cell-based
# Details: not given
row,SMILES,fold change (FC)
1,c1cc(-c2nc(-c3ccc4nc[nH]c4c3)no2)ccn1,10.6
2,CC(C)(C)C1=CC(=O)C=CC1=O,8.46
3,Cn1cnc2ccc(-c3noc(-c4ccc5ccccc5c4)n3)cc21,2.44
4,COc1cccc(-c2nc(-c3ccc4nc[nH]c4c3)no2)c1,8.38

# The remaining lines, values ahead:
row,fold change (FC),SMILES
1,10,CCCc1ccc(-c2nc(-c3ccc4nc[nH]c4c3)no2)cc1
2,8.88,c1cc2ccc(-c3nc(-c4ccc5nc[nH]c5c4)no3)cc2[nH]1
3,1.13,FC(F)(F)c1ccc(-c2nc(-c3ccc4nc[nH]c4c3)no2)cc1
4,5.52,COc1ccc(-c2nc(-c3ccc4nc[nH]c4c3)no2)cc1
5,12.7,N#Cc1ccc(-c2nc(-c3ccc4nc[nH]c4c3)no2)cc1
6,11,c1ccc(-c2ccc(-c3nc(-c4ccc5nc[nH]c5c4)no3)cc2)cc1
7,7.85,Cc1ccccc1-c1nc(-c2ccc3nc[nH]c3c2)no1

# Target: T1, Nuclear factor erythroid 2-related factor 2 (Homo sapiens)
# Assay: Activation of Nrf2 in human HepG2-ARE-C8 cells assessed as upregulation of ARE level at 40 uM after 12 hrs by luciferase reporter gene assay relative to control
# Type: cell-based
# Details: not given
row,SMILES,fold change (FC)
1,COC(=O)/C=C/C(=O)OC,2.97
2,c1cc(-c2nc(-c3ccc4nc[nH]c4c3)no2)ccn1,4.95
3,CC(C)(C)C1=CC(=O)C=CC1=O,2.14
4,Cn1cnc2ccc(-c3noc(-c4ccc5ccccc5c4)n3)cc21,1.45
5,COc1cccc(-c2nc(-c3ccc4nc[nH]c4c3)no2)c1,14.4

# The remaining lines, values ahead:
row,fold change (FC),SMILES
1,6.16,CCCc1ccc(-c2nc(-c3ccc4nc[nH]c4c3)no2)cc1
2,11,c1cc2ccc(-c3nc(-c4ccc5nc[nH]c5c4)no3)cc2[nH]1
3,21.6,FC(F)(F)c1ccc(-c2nc(-c3ccc4nc[nH]c4c3)no2)cc1
4,13,COc1ccc(-c2nc(-c3ccc4nc[nH]c4c3)no2)cc1
5,11.9,N#Cc1ccc(-c2nc(-c3ccc4nc[nH]c4c3)no2)cc1
6,10.7,c1ccc(-c2ccc(-c3nc(-c4ccc5nc[nH]c5c4)no3)cc2)cc1
7,10.8,Cc1ccccc1-c1nc(-c2ccc3nc[nH]c3c2)no1
